Values of other authors as cited in US20220249605A1, “Treatment of Mood and Anxiety Disorders” (Icahn School of Medicine At Mount Sinai, priority 2013, published 2022).
Bridge positions count the residues as written; N and C are the ends. Ends that are not written are not given here.

How the values were obtained:
NPY Y2 receptor = biological target: T1, NPY Y2 receptor (Homo sapiens, UniProt P49146); conditions: read-out: IC50, Y2 receptor antagonist
T1 sequence (P49146 1-381): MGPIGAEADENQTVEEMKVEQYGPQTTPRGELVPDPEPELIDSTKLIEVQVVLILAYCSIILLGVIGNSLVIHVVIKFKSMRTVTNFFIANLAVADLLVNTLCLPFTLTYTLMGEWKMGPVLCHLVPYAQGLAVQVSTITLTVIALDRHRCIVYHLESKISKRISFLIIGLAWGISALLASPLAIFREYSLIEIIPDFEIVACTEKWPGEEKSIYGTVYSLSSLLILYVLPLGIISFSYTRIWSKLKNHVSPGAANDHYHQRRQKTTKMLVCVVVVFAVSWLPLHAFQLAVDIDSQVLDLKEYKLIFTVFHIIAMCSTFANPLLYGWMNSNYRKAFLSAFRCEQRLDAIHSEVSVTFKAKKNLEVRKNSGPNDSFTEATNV

[1] = anesthetized rats
[2] = anesthetized rats and dogs
[3] = tested on: norepinephrine-stimulated cAMP accumulation in SK-N-MC cells; conditions: read-out: EC50, inhibition of norepinephrine-stimulated cAMP accumulation
Y1 receptors = biological target: T2, Y1 receptors (Homo sapiens, UniProt P25929)
T2 sequence (P25929 1-384): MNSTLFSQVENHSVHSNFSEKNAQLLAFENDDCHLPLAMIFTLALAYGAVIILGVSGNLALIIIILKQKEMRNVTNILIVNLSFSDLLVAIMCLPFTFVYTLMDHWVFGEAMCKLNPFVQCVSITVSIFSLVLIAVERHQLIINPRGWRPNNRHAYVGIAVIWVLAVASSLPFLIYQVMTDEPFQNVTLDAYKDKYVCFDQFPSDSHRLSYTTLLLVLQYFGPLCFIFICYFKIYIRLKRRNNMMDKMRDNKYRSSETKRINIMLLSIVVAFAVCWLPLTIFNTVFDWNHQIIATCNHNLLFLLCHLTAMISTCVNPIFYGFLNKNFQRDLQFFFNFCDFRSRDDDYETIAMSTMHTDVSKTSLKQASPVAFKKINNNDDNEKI

In the case of `CN(C)S(=O)(=O)c1ccc(NC(=S)N2CCC(C(O)(c3ccccc3)c3ccccc3)CC2)cc1` [CYM 9484], the IC50 (NPY Y2 receptor) is listed as 0.019 µM.
For “(Leu^31, Pro^34)-Neuropeptide Y [H-3306]”, the “Specificity (Y1 receptor)” value (Y1 receptor) is listed as “Specific Y1 receptor”.
In the case of “(Leu^31, Pro^34)-Neuropeptide Y [H-8575]”, the “Specificity (Y1 receptor)” value (Y1 receptor) is given as “selective ligand for” and the “Potency in increasing blood pressure compared with NPY” value [1] is given as “showing an even higher”.
For (Pro^34)-Neuropeptide Y [H-8580], the “Specificity (Y1 receptor)” value (Y1 receptor) is given as “selective NPY agonist”, the “Effect on blood pressure” value [2] is given as “increased blood” and the “Inhibitory effects on cardiac vagal action” value [2] is given as “contrast, showed no”.
For “Tyr-Lys-Gly-(Cyclo(Glu^26-Lys^29), Pro^34)-Neuropeptide Y (25-36) (YKGREYIKLITRPRY; lactam 5-8; ends not checked) [H-3972]”, the EC50 [3] is listed as 0.012 µM and the Ki (Y1 receptors) is listed as 0.016 µM.
